Read-outs that look alike come from different tables or passages of the source.

Our source for the viability and solubility in water values is patent EP3565534B1, “POLYMERIC NANOPARTICLES ENCAPSULATING A COMBINATION OF NATURAL BIO-ACTIVES TRANS-RESVERATROL(RSV) AND CELASTROL(CL), A PROCESS FOR THE PREPARATION AND USE THEREOF IN THE TREATMENT OF PROSTATE CANCER” (Università degli Studi di Sassari, priority 2017, dated 2018).

The subject of data set [1] is prostate cancer cell lines (C-42, DU-145, and PC-3 cells). Briefly: MTT assay, antiproliferative efficacy, results stated for all three cell lines together. As to conditions: 72 hours; non-encapsulated, alone; RSV 20, 30, 40 µM; CL 0.250, 0.375, 0.5 µM. The format is cell-based. How it is done: Finally, in vitro cytotoxicity studies were performed in order to evaluate whether co-administration of encapsulated RSV and CL would have allowed an increase in the antiproliferative efficacy compared to single molecules, both as such and formulated in nanosystems, on androgen-dependent (C-42 cells) and androgen-independent (DU-145 and PC-3 cells) prostate cancer cell lines (PCa).
The antiproliferative efficacy of the NPs of the present invention was evaluated using the MTT assay (3-[4,5-dimethylthiazol-2-yl]-2,5-diphenyl tetrazolium bromide) applying the procedure described in Sanna V., et al., Resveratrol-loaded nanoparticles based on poly(epsilon-caprolactone) and poly(D,L-lactic-co-glycolic acid)-poly(ethylene glycol) blend for prostate cancer treatment. Mol. Pharm. 2013 Oct 7;10(10):3871-81, which, as a result, is included herein as a reference in its entirety.
Each experiment was repeated 3 or 5 times (n = 3 or 5).

For data set [2] the following is noted: cited from earlier work.

For the compound `Oc1ccc(/C=C/c2cc(O)cc(O)c2)cc1` [RSV, trans-3,5,4'-trihydroxy-stilbene], the viability entry in data set [1] is given as “reduction of viability that is generally dose-dependent”. Moreover, the solubility in water in data set [2] is reported as 3 mg/100 mL.
For `CC1=C(O)C(=O)C=C2C1=CC=C1[C@@]2(C)CC[C@@]2(C)[C@@H]3C[C@](C)(C(=O)O)CC[C@]3(C)CC[C@]12C` [CL, Celastrol], the solubility in water entry in data set [2] (result in words) was “insoluble”.
